Reference: patent US20160287626A1, “METHODS OF TREATING AND PREVENTING RADIATION DAMAGE” (CANTEX PHARMACEUTICALS, INC., priority 2013, published 2016)
“Also recorded” adds a separate entry of the source.

What was measured:
[1] = system: CD2F1 mice irradiated with 9.25 Gy; assay: Survival of CD2F1 mice after 9.25 Gy total body irradiation; assay type: in vivo; conditions: 9.25 Gy TBI
Experimental: FIG. 1 provides a graph illustrating the survival of CD2F1 mice after total body irradiation: control group with no post-irradiation treatment (o); 0.1 mL PBS administered subcutaneously at 4 h post-irradiation (□); 0.1 mL PBS administered subcutaneously at 24, 36, and 48 h post-irradiation (Δ); 0.1 mL 25 mg/kg ODSH administered subcutaneously at 4, 16, and 28 h post-irradiation (▪); and 0.1 mL 25 mg/kg ODSH administered subcutaneously at 24, 36, and 48 h post-irradiation (▴).
CD2F1 male mice (Batch #7586 DOB Dec. 23, 2012) were weighed and animals outside ±20% of the mean weight were excluded. Mice that were within ±20% of the mean weight were randomized into groups of eight animals per box. There were 24 animals per treatment group. The animals received radiation at a dose rate of 0.6 Gy/min in the AFRRI Cobalt 60 gamma radiation facility. Animals were irradiated in Lucite boxes (8 animals/box) and arranged in an array (dosimetry Feb. 25, 2010) using plastic racks. Animals were restrained for no more than 60 min and returned to cages at the end of the irradiation period.
Post-TBI, animals were untreated (naïve) or treated subcutaneously with either phosphate buffered solution (PBS) or ODSH (2-O, 3-O desulfated heparin). […] The animals were monitored daily (twice a day when necessary) for 30 days and euthanized at the completion of the observational period.

[2] = system: anti-coagulant activity; conditions: cited from earlier work

Substance: 2-O, 3-O desulfated heparin [ODSH]
- survival over the post-irradiation period compared with naïve and PBS-treated mice ([1]; 25 mg/kg s.c. post-irradiation (24, 36 and 48 h), 30-day observation, 25 mg/kg): greatest percentage survival; also recorded: improves survival
- mice still alive at day 10 post-irradiation ([1]; 0.1 mL 25 mg/kg s.c. at 24, 36 and 48 h post-irradiation, day 10): 95%
- anti-coagulant activity in the USP anti-coagulant assay [2]: less than 9 U/mg
- anti-coagulant activity in the USP anti-coagulant assay (example value) ([2]; e.g. value): 7±0.3 U

Substance: Unfractionated heparin [reference compound]
- anti-coagulant activity in the USP anti-coagulant assay [2]: 165-190 U/mg
